Experimental data taken from patent publication US20040087571A1, “Methods of using CCR1 antagonists as immunomodulatory agents” (Pfizer Inc, priority 2002, published 2004).

Row | melting point [°C] | Compound
1 | 217 to 219 | CC(C)(F)CC[C@H](C[C@H](O)[C@H](Cc1ccccc1)NC(=O)c1cnc2ccccc2n1)C(=O)N1CCC[C@H]1CO [Example 239, Quinoxaline-2-carboxylic acid [1(S)-benzyl-7-fluoro-2(S)-hydroxy-4(R)-(2(S)-hydroxymethyl-pyrrolidine-1-carbonyl)-7-methyl-octyl]-amide]
2 | 159 to 160.5 | CC(C)(F)CC[C@H](C[C@H](O)[C@@H](NC(=O)c1cnc2ccccc2n1)c1ccccc1)C(N)=O [Example 266, Quinoxaline-2-carboxylic acid (4(R)-carbamoyl-7-fluoro-2(S)-hydroxy-7-methyl-1(S)-phenyl-octyl)-amide]
3 | 121 to 123 | CNC(=O)[C@H](CC(C)C)C[C@H](O)[C@H](Cc1ccc2ccccc2c1)NC(=O)c1cnc2ccccc2n1 [Example 127, Quinoxaline-2-carboxylic acid (2(S)-hydroxy-6-methyl-4(R)-methylcarbamoyl-1(S)-naphthalen-2-ylmethyl-heptyl)-amide]
4 | 123 to 125 | NC(=O)[C@@H](C[C@H](O)[C@H](Cc1ccccc1)NC(=O)c1cnc2ccccc2n1)C1(O)CCSCC1 [Example 269, Quinoxaline-2-carboxylic acid [1(S)-benzyl-4(S)-carbamoyl-2(S)-hydroxy-4-(4-hydroxy-tetrahydro-thiopyran-4-yl)-butyl]-amide]
5 | 206 to 207 | CC(C)(F)CC[C@H](C[C@H](O)[C@H](Cc1ccc(Cl)c(Cl)c1)NC(=O)c1cnc2ccccc2n1)C(N)=O [Example 155, Quinoxaline-2-carboxylic acid [4(R)-carbamoyl-1(S)-(3,4-dichloro-benzyl)-7-fluoro-2(S)-hydroxy-7-methyl-octyl]-amide]
6 | 162 to 164 | COc1ccc(CNC(=O)[C@H](CCC(C)(C)F)C[C@H](O)[C@H](Cc2ccccc2)NC(=O)c2cnc3ccccc3n2)cc1OC [Example 206, Quinoxaline-2-carboxylic acid [1(S)-benzyl-4(R)-(3,4-dimethoxy-benzylcarbamoyl)-7-fluoro-2(S)-hydroxy-7-methyl-octyl]-amide]
7 | 100 to 104 | CC(C)(F)CC[C@H](C[C@H](O)[C@H](Cc1ccccc1)NC(=O)c1cnc2ccccc2n1)C(=O)NCc1ccncc1 [Example 217, Quinoxaline-2-carboxylic acid {1(S)-benzyl-7-fluoro-2(S)-hydroxy-7-methyl-4(R)-[(pyridin-4-ylmethyl)-carbamoyl]-octyl}-amide]
8 | 151 to 154 | NC(=O)[C@@H](C[C@H](O)[C@H](Cc1ccccc1)NC(=O)c1cnc2ccccc2n1)C1CCOCC1 [Example 204, Quinoxaline-2-carboxylic acid [1(S)-benzyl-4(S)-carbamoyl-2(S)-hydroxy-4-(tetrahydro-pyran-4-yl)-butyl]-amide]
9 | 178 to 179 | CNC(=O)[C@H](CC(C)C)C[C@H](O)[C@H](Cc1ccc(OCc2ccccc2)cc1)NC(=O)c1cnc2ccccc2c1 [Example 40, Quinoline-3-carboxylic acid [1(S)-(4-benzyloxy-benzyl)-2(S)-hydroxy-6-methyl-4(R)-methylcarbamoyl-heptyl]-amide]
10 | 174 to 176 | NC(=O)[C@H](CC1CCC(F)(F)CC1)C[C@H](O)[C@H](Cc1ccccc1)NC(=O)c1cnc2ccccc2n1 [Example 133, Quinoxaline-2-carboxylic acid [1(S)-benzyl-4(R)-carbamoyl-5-(4,4-difluoro-cyclohexyl)-2(S)-hydroxy-pentyl]-amide]
11 | 227 to 228 | CCCC1CCC(O)([C@H](C[C@H](O)[C@H](Cc2ccccc2)NC(=O)c2cnc3ccccc3n2)C(N)=O)CC1 (stereo partly drawn) [Example 300, Quinoxaline-2-carboxylic acid [1(S)-benzyl-4(S)-carbamoyl-2(S)-hydroxy-4-(1-hydroxy-4-propyl-cyclohexyl)-butyl]-amide]
12 | 155 to 158 | CC(C)(O)CC[C@H](C[C@H](O)[C@H](Cc1cccc2ccccc12)NC(=O)c1cnc2ccccc2n1)C(N)=O [Example 324, Quinoxaline-2-carboxylic acid (4(R)-carbamoyl-2(S),7-dihydroxy-7-methyl-1(S)-naphthalen-1-ylmethyl-octyl)-amide]
13 | 164 to 166 | NC(=O)[C@H](Cc1ccc(F)cc1)C[C@H](O)[C@H](Cc1ccccc1)NC(=O)c1cnc2ccccc2n1 [Example 194, Quinoxaline-2-carboxylic acid [1(S)-benzyl-4(R)-carbamoyl-5-(4-fluoro-phenyl)-2(S)-hydroxy-pentyl]-amide]
14 | 174 to 175 | CC(C)(F)CC[C@H](C[C@H](O)[C@H](Cc1ccccc1)NC(=O)c1cnc2ccccc2n1)C(=O)NCc1cccs1 [Example 213, Quinoxaline-2-carboxylic acid {1(S)-benzyl-7-fluoro-2(S)-hydroxy-7-methyl-4(R)-[(thiophen-2-ylmethyl)-carbamoyl]-octyl}-amide]
15 | 222 to 223 | NC(=O)[C@@H](C[C@H](O)[C@H](Cc1ccccc1)NC(=O)c1cnc2ccccc2n1)C1CCCCC1 [Example 168, Quinoxaline-2-carboxylic acid (1(S)-benzyl-4-carbamoyl-4(S)-cyclohexyl-2(S)-hydroxy-butyl)-amide]
16 | 213 to 215 | CC(C)CC[C@H](C[C@H](O)[C@H](Cc1ccccc1F)NC(=O)c1cnc2ccccc2n1)C(N)=O [Example 175, Quinoxaline-2-carboxylic acid [4(R)-carbamoyl-1(S)-(2-fluoro-benzyl)-2(S)-hydroxy-7-methyl-octyl]-amide]
17 | 187 to 189 | NC(=O)[C@@H](C[C@H](O)[C@H](Cc1ccccc1)NC(=O)c1cnc2ccccc2n1)C1(O)CCCCC1 [Example 243, Quinoxaline-2-carboxylic acid [1(S)-benzyl-4(S)-carbamoyl-2(S)-hydroxy-4-(1-hydroxy-cyclohexyl)-butyl]-amide]
18 | 186 to 188 | CC(C)C[C@H](C[C@H](O)[C@H](CC1CCCCC1)NC(=O)c1cnc2ccccc2c1)C(N)=O [Example 20, Quinoline-3-carboxylic acid (4(R)-carbamoyl-1(S)-cyclohexylmethyl-2(S)-hydroxy-6-methyl-heptyl)-amide]
19 | 188 to 190 | CC1(C)CC([C@H](C[C@H](O)[C@H](Cc2ccccc2)NC(=O)c2cnc3ccccc3n2)C(N)=O)CC(C)(C)C1 [Example 179, Quinoxaline-2-carboxylic acid [1(S)-benzyl-4(S)-carbamoyl-2(S)-hydroxy-4-(3,3,5,5-tetramethyl-cyclohexyl)-butyl]-amide]
20 | 145 to 147 | CNC(=O)[C@H](CCC(C)(C)F)C[C@H](O)[C@H](Cc1ccc(F)cc1)NC(=O)c1cnc2ccccc2n1 [Example 154, Quinoxaline-2-carboxylic acid [7-fluoro-1(S)-(4-fluoro-benzyl)-2(S)-hydroxy-7-methyl-4(R)-methylcarbamoyl-octyl]-amide]
21 | 110 to 112 | O=C(N[C@@H](Cc1ccccc1)[C@@H](O)C[C@H](C(=O)NO)C1(O)CCCC1)c1cnc2ccccc2n1 [Example 281, Quinoxaline-2-carboxylic acid [1(S)-benzyl-2(S)-hydroxy-4(S)-hydroxycarbamoyl-4-(1-hydroxy-cyclopentyl)-butyl]-amide]
22 | 170.5 to 172.5 | CNC(=O)[C@H](CC1CCCCC1)C[C@H](O)[C@H](CC1CCCCC1)NC(=O)c1cnc2ccccc2c1 [Example 21, Quinoline-3-carboxylic acid (5-cyclohexyl-1(S)-cyclohexylmethyl-2(S)-hydroxy-4(R)-methylcarbamoyl-pentyl)-amide]
23 | 150 to 153 | CC(C)(O)CC[C@H](C[C@H](O)[C@H](Cc1ccc(F)c(F)c1)NC(=O)c1cnc2ccccc2n1)C(=O)NO [Example 322, Quinoxaline-2-carboxylic acid [1(S)-(3,4-difluoro-benzyl)-2(S),7-dihydroxy-4(R)-hydroxycarbamoyl-7-methyl-octyl]-amide]
24 | 152 to 154 | CC(C)(F)CC[C@H](C[C@H](O)[C@H](Cc1ccccc1)NC(=O)c1cnc2ccccc2n1)C(=O)NCCc1cccs1 [Example 229, Quinoxaline-2-carboxylic acid [1(S)-benzyl-7-fluoro-2(S)-hydroxy-7-methyl-4(R)-(2-thiophen-2-yl-ethylcarbamoyl)-octyl]-amide]
25 | 168 to 170 | CNC(=O)[C@H](CC(C)C)C[C@H](O)[C@H](Cc1ccc(OS(=O)(=O)C(F)(F)F)cc1)NC(=O)c1cnc2ccccc2c1 [Example 50, Trifluoro-methanesulfonic acid 4-{3(S)-hydroxy-7-methyl-5(R)-methylcarbamoyl-2(S)-[(quinoline-3-carbonyl)-amino]-octyl}-phenyl ester]
26 | 176 to 179 | NC(=O)[C@H](Cc1cccc(F)c1)C[C@H](O)[C@H](Cc1ccccc1)NC(=O)c1cnc2ccccc2n1 [Example 292, Quinoxaline-2-carboxylic acid [1(S)-benzyl-4(R)-carbamoyl-5-(3-fluoro-phenyl)-2(S)-hydroxy-pentyl]-amide]
27 | 190 to 191 | NC(=O)[C@@H](C[C@H](O)[C@H](Cc1ccccc1)NC(=O)c1cnc2ccccc2n1)C1Cc2ccccc2C1 [Example 192, Quinoxaline-2-carboxylic acid (1(S)-benzyl-4(S)-carbamoyl-2(S)-hydroxy-4-indan-2-yl-butyl)-amide]
28 | 230 to 233 | CC1CCC(O)([C@H](C[C@H](O)[C@H](Cc2ccccc2)NC(=O)c2cnc3ccccc3n2)C(N)=O)CC1 (stereo partly drawn) [Example 278, Quinoxaline-2-carboxylic acid [1(S)-benzyl-4(S)-carbamoyl-2(S)-hydroxy-4-(1-hydroxy-4-methyl-cyclohexyl)-butyl]-amide]
29 | 210 to 211 | NC(=O)[C@@H](C[C@H](O)[C@H](Cc1ccccc1)NC(=O)c1cnc2ccccc2n1)C1(O)CCCCC1 [Example 260, Quinoxaline-2-carboxylic acid [1(S)-benzyl-4(S)-carbamoyl-2(S)-hydroxy-4-(1-hydroxy-cyclohexyl)-butyl]-amide]
30 | 221 to 222 | CC1CC(C)CC([C@@H](C[C@H](O)[C@H](Cc2ccccc2)NC(=O)c2cnc3ccccc3n2)C(N)=O)C1 (stereo partly drawn) [Example 210, Quinoxaline-2-carboxylic acid [1(S)-benzyl-4(R)-carbamoyl-4-(3,5-dimethyl-cyclohexyl)-2(S)-hydroxy-butyl]-amide]
